“Also recorded” adds a separate entry of the source.
Tests used:
[1] = test system: Dayo-human Glioma tumor; assay: AlamarBlue cell proliferation assay after radiosensitizer and irradiation, Dayo; type: cell-based; conditions: 0.1 μM; FIG. 4B, P<0.01
Procedure: Human glioma cell lines: Daoy (ATCC number: HTB-186) and
(§1) Human colorectal cancer cell line: HT-29 (ATCC number: HTB-38). All cells were cultured routinely in DMEM supplemented with 10% FCS.
(§2) Three hypericin derivatives were used in the assay, including hypericin tetrasulfonic acid (HyTS); Tetrabromo hypericin (TBrHy); and Hexamethyl hypericin (HxMeHy). In addition, as control, hypericin and/or Photofrin II as well as cells exposed only to radiation, i.e. without a radiosensitizing agent.
(§3) The hypericin, hypericin derivatives and photofrin II were used in doses ranging from 0.1 μM up to 2 μM. All compounds were dissolved in DMSO, and were protected from light.
(§4) In all cases, control and tumor cells were exposed to ionizing radiation (Siemens X-ray device with 250 kV or with LINAC) at 24 h after the incubation with Hyperecin, Photofrin II or Hypericin derivatives indicated below. The total delivered radiation dose was a 10 Gy, provided in a single irradiation session on the second day of culture. The response of the tumor to the radiation treatment was evaluated by determining growth delay using the described cell proliferation assay.
(§5) Cell proliferation assay using AlamarBlue
(§6) Unless indicated otherwise, the tumor cell lines were cultured at a starting density of 1×10^5 cells/mL in DMEM and 10% FCS. […] Absorbance was measured at 570 nm and 600 nm using a micro-titer plate reader. […]

[2] = test system: C6 Rat-Glioma grown as cancer stem cells spheres; assay: AlamarBlue cell proliferation assay after radiosensitizer and irradiation, C6 cancer stem cell spheres; type: cell-based; conditions: 0.1 μM; irradiation 10 Gy; 5 days post irradiation; FIG. 3B, P<0.049
Procedure: (§7) Rat glioma cell line: C6 (ATCC number: CCL107)
To obtain tumor stem cells, cells were cultured in stem cell conditioned media. Briefly, breast and glioma cancer cells were cultured in serum-free DMEM media containing […] bovine insulin, 100 μg/ml human transferrin, 100 μg/ml BSA, 60 ng/ml progesterone, 16 μg/ml putrescine, 40 μg/ml sodium selenite, 63 μg/ml N-acetylcysteine, 5 μM forskolin, 50 units/ml penicillin, and 50 μg/ml streptomycin, 10 ng/ml bFGF, and 10 ng/ml PDGF. In all experiments, cells were maintained in 100 mm or 96 well plate culture dishes at 37° C. in a humidified […] and were protected from light.
Three hypericin derivatives were used in the assay, including hypericin tetrasulfonic acid (HyTS); Tetrabromo hypericin (TBrHy); and Hexamethyl hypericin (HxMeHy). […]
In all cases, control and tumor cells were exposed to ionizing radiation (Siemens X-ray device with 250 kV or with LINAC) at 24 h after the incubation with Hyperecin, Photofrin II or Hypericin derivatives indicated below. […] The response of the tumor to the radiation treatment was evaluated by determining growth delay using the described cell proliferation assay. […]
as §6

[3] = test system: C6 Rat-Glioma grown in monolayer; assay: AlamarBlue cell proliferation assay after radiosensitizer and irradiation, C6 monolayer; type: cell-based; conditions: 0.1 μM
Procedure: The following cell lines were originally obtained from the American Type Culture collection (ATTC):
as §7, §1, §2, §3
In all cases, control and tumor cells were exposed to ionizing radiation (Siemens X-ray device with 250 kV or with LINAC) at 24 h after the incubation with Hyperecin, Photofrin II or Hypericin derivatives indicated below. […] The response of the tumor to the radiation treatment was evaluated by determining growth delay using the described cell proliferation assay.
as §5, §6

[4] = test system: U87 Tumors; conditions: wavelength of 665 nm; with or without radiation
Procedure: U87 Tumors were resected when tumors reached end-point (1500 mm^3), minced, and digested in 4 mg/ml collagenase III, 2 mg/ml hyaluronidase, and 2 mg/ml collagenase IV in serum free DMEM, for 20 min, at 37° C. Cells were then filtered through a 40 μm sieve, and washed twice with PBS to obtain single U87 cell suspension.
The single U87 tumor cell suspensions were then acquired on Cyan ADP flow cytometer (Beckman Coulter) and analyzed with Summit (Beckman Coulter) software.
The FL8 channel, (wavelength of 655/20 nm) was used to detect differences between positive and negative cells. From each sample, at least 50,000 cells were acquired.
(§8) These studies were aimed at assessing the localization of radiosensitizing agents and were conducted by two complementary techniques; the first in implanted U87 human glioma tumors using UV lamp and the second in extracted U87 tumors using Flow Cytometry techniques.

[5] = Treatment toxicity: body weight and overall behaviour (Example 4A); type: in vivo, nude mice; conditions: 10 mg/kg
Procedure: (§9) Mice injected with 5% DMSO vehicle served as the control untreated group. Immediately after the injections, the mice were placed in the dark. For each group of radiosensitizing agent treated mice, half of the treated mice were then treated with a 10 Gy dose of radiation, initiated two hours after the administration of the radiosensitizing agents.
Treatment toxicity was evaluated using two parameters, (i) measuring mice's body weight and (ii) monitoring overall mice behaviour, both parameters were measured twice weekly.

[6] = test system: PANC01 human pancreatic adenocarcinoma cells; assay: PANC01 human pancreatic adenocarcinoma tumors in CB.17 SCID mice, tumor volume (Example 4C); type: in vivo; conditions: 10 mg/kg + 10 Gy radiation; CB.17 SCID mice; FIG. 8B
Procedure: Mice were injected with the radiosensitizing agent, and immediately after were placed in the dark. Radiation was conducted 2 hours after radiosensitizing administration. […] Tumor volume was measured prior to the treatment and thereafter twice weekly.

[7] = test system: U87 human glioma tumors; assay: U87 human glioma tumors implanted in nude mice, tumor growth (Example 4A); type: in vivo; conditions: 10 mg/kg + 10 Gy radiation
Procedure: as §9
Overall, eight groups of treatment were evaluated as follows:
Tumor growth was evaluated by measuring the tumor's volume twice weekly.

[8] = test system: HT29-human colon carcinoma; assay: AlamarBlue cell proliferation assay after radiosensitizer and irradiation, HT29; type: cell-based; conditions: 0.1 μM; FIG. 4E, P<0.05
Procedure: as §1, §2, §3, §4, §5, §6

[9] = test system: MCF-7 human breast carcinoma grown as cancer stem cells spheres; assay: Example 2B AlamarBlue proliferation, MCF7 cancer stem cells; type: cell-based
Procedure: (§10) Linear cell (Lin) HT29 and MCF7 human breast carcinoma, were obtained from the American Type Culture Collection (ATCC).
Enrichment of the cancer stem cells (CSCs) population was done by incubating linear cells in a DMEM/F-12 (HAM) 1:1 medium supplement with Insulin-Transferin-Soldium Selenite, and growth factors specific for each cell line. Cells considered enriched for CSCs after 10-15 days in CSCs medium.
(§11) Three photosensitizing agents were used, Hypericin (Hy), Tetrabromo hypericin (TBrHy), and hypericin tetrasulfonic acid (HyTS) in the following concentrations: 0.1 μM, 1 μM and 2 μM. Drugs were protected from light for all time. Control cells were treated with 0.1% DMSO (vehicle).
(§12) Linear and CSC were exposed to 3 Gy irradiation daily for four consecutive days or to a single dose of 10 Gy radiation. Radiation was initiated one day after treatment with the hypericin or hypericin derivatives.
(§13) Linear and CSCs were cultured in a 96 plate in triplicates. Each cell line was treated with the three radiosensitizing agents in the indicated doses. In addition culture cells were exposure to radiation. A day before the irradiation, the radiosensitizing agents were added to the culture. Cells were allowed to grow over a period of 5 days using the method of AlamarBlue™ reduction assay. 10% Alamar Blue solution added to each well. Cells viability was measured using Eliza Reader at two different wavelengths: 570 nm and 600 nm, and the appropriate equation was calculated to reflect cell viability.

[10] = brain sections of treated mice, fluorescence 550-650 nm
[11] = test system: MCF-7 human breast carcinoma grown as monolayer; assay: Example 2B AlamarBlue proliferation, MCF7 linear cells; type: cell-based; conditions: 0.1-2 μM; single dose 10 Gy; FIG. 6C
Procedure: as §10
Cells were cultured in Dulbecco's Modified Eagle Medium (DMEM), supplemented with 10% fetal calf serum (FCS) and antibiotics.
as §11, §12, §13

[12] = test system: U87 Tumors; conditions: during the 2 hours prior to radiation
Procedure: U87 Tumors were implanted subcutaneously in nude mice and then examined under a UV light lamp and the colour intensity was visualized.
as §8

Row | Structure (SMILES) | radiosensitizing effect on Dayo tumor (proliferation on day 5) [1] | proliferation of C6 glioma cells grown as CSCs (AlamarBlue, fold increase) [2] | radiosensitizing effect on C6 brain cancer (proliferation on day 5) ([3]; FIG. 4A) | proliferation of C6 glioma cells in monolayer (AlamarBlue, fold increase) ([3]; irradiation 10 Gy, 5 days post irradiation, FIG. 3A, P<0.05) | fluorescent signal of tumor cells by flow cytometry [4] | tolerability of treatment ([5]; alone or in combination with radiation, nude mice) | change in mice body weight and mice behaviour ([5]; measured twice weekly) | tumor volume of PANC1 pancreatic tumors, agent with radiation [6] | tumor growth of U87 tumors, agent combined with radiotherapy ([7]; nude mice, FIG. 7) | tumor removal in one mouse ([7]; one mouse, 4 days after treatment) | radiosensitizing effect on colon cancer HT29 (proliferation on day 5) [8] | inhibiting proliferation of MCF7 human breast cancer cells grown as stem cells ([9]; 0.1-2 μM, single dose 10 Gy, FIG. 6D) | effect in MCF7 cancer stem cells compared with monolayer ([9]; FIGS. 6C and 6D) | BBB penetration [10] | inhibiting proliferation of MCF7 human breast cancer cells grown as monolayer [11] | colour of tumors under UV light [12]
1 | COc1cc(C)c2c3c(C)cc(OC)c4c(=O)c5c(OC)cc(OC)c6c7c(OC)cc(OC)c8c(=O)c1c2c(c87)c(c43)c56 [HxMeHy, Hexamethyl hypericin] | effective radiosensitizing agent | statistically inhibited the proliferation | effective radiosensitizing agent | statistically inhibited the proliferation | – | – | – | – | – | – | – | – | – | – | – | –
2 | Cc1c(Br)c(O)c2c(=O)c3c(O)c(Br)c(O)c4c5c(O)c(Br)c(O)c6c(=O)c7c(O)c(Br)c(C)c8c1c2c(c34)c(c78)c65 [TBrHy, Tetrabromo hypericin] | – | – | – | – | fluorescent signal was detected | well tolerated | no significant change | most potent radiosensitizing agent; also recorded: enhanced anti-tumor activity | most effective radiosensitizing agent; also recorded: better anti-tumor activity | completely removed | effective radiosensitizing agents | effective in inhibiting the proliferation | more pronounced | penetrated the BBB | effective in inhibiting the proliferation | colored in red
